Assay results: patent publication US20260207702A1, “USE OF AVPR1A AGONISTS” (Viage Therapeutics Inc., priority 2022, published 2026)
Where a SMILES comes first, the peptide text is derived from it. Bridges are numbered along the chain shown (N, C = ends).

Key:
mouse [1] = assay: Mouse tail suspension test with desmopressin (Example 6); assay type: in vivo; settings: oral desmopressin 0.03, 0.1, 0.3, 1.0 mg/kg vs felypressin 0.1 mg/kg
Protocol: Desmopressin at 0.03 mg/kg, 0.1 mg/kg, and 0.3 mg/kg was compared to felypressin at 0.1 mg/kg (n=6 per group) in a first study. Desmopressin at 0.1 mg/kg, 0.3 mg/kg, and 1.0 mg/kg was compared to felypressin at 0.1 mg/kg (n=6 per group) in a first study.

healthy subjects = settings: in vivo
Protocol: A Phase 1a/1b, randomized, placebo-controlled, crossover study with the peptide [sequence] (SEQ ID NO: 1) in healthy subjects was performed. The study population included men and women in good general health.
A single ascending dose (SAD) group included four cohorts receiving 60 mg/day (cohorts SAD1 and SAD2), 180 mg/day (cohort SAD3), or 540 mg/day (cohort SAD4) of the peptide or placebo. […] All doses were administered orally. […] Seven days after the end of dosing, this group was then switched to receiving placebo once a day for seven days, followed by another 24-hour period of sleep deprivation. then crossing to 540 mg of peptide once a day for 7 days. In another group (n=7, with one participant withdrawing after initiation for personal reasons), the inverse dose regimen was used, with participants starting with placebo and the crossing over to 540 mg of peptide once a day.

mouse [2] = assay: Tail suspension test (TST) with vasopressin receptor inhibitors (Example 1); assay type: in vivo
From the text: NO: 1) is either AVPR1A or AVPR2 (FIGS. 1-2).

mouse [3] = assay: Mouse tail suspension test with felypressin (Example 5); assay type: in vivo
Protocol: The effect of orally administered felypressin, a selective AVPR1A agonist, on antidepressant activity in the mouse tail suspension test was evaluated. Felypressin at 0.03 mg/kg, 0.1 mg/kg, and 0.3 mg/kg was compared to the peptide […] (SEQ ID NO: 1) at 0.3 mg/kg (n=6 per group). The effect of orally administered felypressin (0.1 mg/kg) was also compared to the effect of orally administered felypressin (0.1 mg/kg) plus the AVPR1A/AVPR2 inhibitor conivaptan (3 mg/kg) (n=7 per group).

NC(=O)CC[C@@H]1NC(=O)[C@H](Cc2ccccc2)NC(=O)[C@H](Cc2ccc(O)cc2)NC(=O)CCSSC[C@@H](C(=O)N2CCC[C@H]2C(=O)N[C@H](CCCN=C(N)N)C(=O)NCC(N)=O)NC(=O)[C@H](CC(N)=O)NC1=O [desmopressin, 1-desamino-8-D-arginyl vasopressin]
Antidepressant activity in the mouse tail suspension test, compared to felypressin (mouse [1]): less of an effect than felypressin

CC(C)C[C@H](N)C(=O)N[C@@H](CO)C(=O)N[C@@H](CO)C(=O)N[C@H](C(=O)N[C@@H](CCC(N)=O)C(=O)N[C@@H](C)C(=O)N[C@@H](CCC(N)=O)C(=O)N[C@@H](CCC(N)=O)C(=O)N[C@@H](CO)C(=O)N[C@@H](Cc1ccc(O)cc1)C(=O)O)[C@@H](C)O [LSSTQAQQSY (SEQ ID NO: 1), LSSTQAQQSY] (H-LSSTQAQQSY-OH; N-terminus and C-terminus assumed)
Vital signs, electrocardiography (ECG) data, and physical examinations (healthy subjects): normal

Cc1ccccc1C(=O)Nc1ccc(C(=O)N2CCCC(O)c3cc(Cl)ccc32)c(C)c1 (centres unmarked) [tolvaptan]
Blocking of LSSTQAQQSY (SEQ ID NO: 1) activity in a tail suspension test (reduced TST immobility) (mouse [2]; mouse, in vivo): does not block

Cc1nc2c([nH]1)-c1ccccc1N(C(=O)c1ccc(NC(=O)c3ccccc3-c3ccccc3)cc1)CC2 [conivaptan]
Blocking of felypressin activity in the tail suspension test (mouse [3]; oral felypressin 0.1 mg/kg plus conivaptan 3 mg/kg): blocks | Blocking of LSSTQAQQSY (SEQ ID NO: 1) activity in a tail suspension test (reduced TST immobility) (mouse [2]; low doses of inhibitor): blocks | Blocking of LSSTQAQQSY (SEQ ID NO: 1) activity in a tail suspension test (reduced TST immobility) (mouse [2]; mouse, in vivo): blocks

COc1ccc(S(=O)(=O)N2C(=O)[C@@](c3ccccc3OC)(N3C[C@H](O)C[C@H]3C(=O)N(C)C)c3cc(Cl)ccc32)c(OC)c1 [nelivaptan]
Blocking of LSSTQAQQSY (SEQ ID NO: 1) activity in a tail suspension test (reduced TST immobility) (mouse [2]; mouse, in vivo): blocks

NCCCC[C@H](NC(=O)[C@@H]1CCCN1C(=O)[C@@H]1CSSC[C@H](N)C(=O)N[C@@H](Cc2ccccc2)C(=O)N[C@@H](Cc2ccccc2)C(=O)N[C@@H](CCC(N)=O)C(=O)N[C@@H](CC(N)=O)C(=O)N1)C(=O)NCC(N)=O [felypressin] (H-CFFQNCPKG-NH2; disulfide 1-6)
Antidepressant activity in the mouse tail suspension test (mouse [3]; orally administered, 0.03, 0.1 and 0.3 mg/kg): induces an antidepressant effect
